For one assay, the target named is BACE1 enzyme (Homo sapiens, UniProt P56817). Put plainly: BACE1 enzyme inhibition, Ki from kinetic data under tight-binding conditions. In kind it is biochemical. Particulars: Ki (nM) BACE1, Table 1, new inhibitors 2f-j.
A further assay has as its target T1, BACE2 enzyme (Homo sapiens, UniProt Q9Y5Z0).
T1 sequence (Q9Y5Z0 63-518): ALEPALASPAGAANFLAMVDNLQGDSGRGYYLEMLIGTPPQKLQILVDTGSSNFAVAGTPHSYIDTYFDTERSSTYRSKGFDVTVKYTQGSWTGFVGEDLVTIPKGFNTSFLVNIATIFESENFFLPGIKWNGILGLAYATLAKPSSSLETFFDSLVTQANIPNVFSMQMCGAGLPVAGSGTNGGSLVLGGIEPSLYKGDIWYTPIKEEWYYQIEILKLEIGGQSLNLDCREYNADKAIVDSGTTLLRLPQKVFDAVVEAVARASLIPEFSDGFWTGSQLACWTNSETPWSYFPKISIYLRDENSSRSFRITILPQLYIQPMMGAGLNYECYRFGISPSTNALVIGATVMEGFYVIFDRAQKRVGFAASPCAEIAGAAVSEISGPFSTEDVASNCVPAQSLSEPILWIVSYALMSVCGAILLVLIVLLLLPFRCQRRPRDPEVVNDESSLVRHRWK
The experiment in a line: BACE2 enzyme inhibition, Ki from kinetic data under tight-binding conditions. In kind it is biochemical. Particulars: Ki (nM) BACE2, Table 1, new inhibitors 2f-j.

The structures appear in SMILES notation.

Sequence of BACE1 enzyme (P56817 46-501): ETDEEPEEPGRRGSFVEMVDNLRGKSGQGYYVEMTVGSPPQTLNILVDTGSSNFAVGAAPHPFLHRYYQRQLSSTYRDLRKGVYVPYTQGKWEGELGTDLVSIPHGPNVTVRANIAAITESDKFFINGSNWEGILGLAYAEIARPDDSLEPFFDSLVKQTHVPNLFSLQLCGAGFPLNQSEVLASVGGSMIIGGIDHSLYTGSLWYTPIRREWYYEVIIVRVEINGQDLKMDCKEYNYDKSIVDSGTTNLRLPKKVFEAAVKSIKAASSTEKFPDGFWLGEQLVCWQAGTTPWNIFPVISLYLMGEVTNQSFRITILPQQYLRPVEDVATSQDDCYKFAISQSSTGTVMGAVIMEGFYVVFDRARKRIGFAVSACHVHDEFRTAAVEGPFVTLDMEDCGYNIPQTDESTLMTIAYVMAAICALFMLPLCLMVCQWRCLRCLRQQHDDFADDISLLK

What is called Ki is the dissociation constant of the complex between target and ligand, obtained from inhibition or displacement. `CCC[C@H](O)[C@H](NC[C@@H](O)[C@H](Cc1ccccc1)NC(=O)c1cc(C)cc(C(=O)N(C)Cc2nc(C)cs2)c1)C(=O)NCC(C)C` [inhibitor 2j, N^1-((2S,3R)-3-Hydroxy-4-(((2S,3S)-3-hydroxy-1-(isobutylamino)-1-oxohexan-2-yl)amino)-1-phenylbutan-2-yl)-N^3,5-dimethyl-N^3-((4-methylthiazol-2-yl)methyl)isophthalamide]: the Ki worked out at 34.2 nM on BACE1 enzyme and 25.3 nM on BACE2 enzyme.

In the case of `CCC[C@H](O)[C@H](NC[C@@H](O)[C@H](Cc1ccccc1)NC(=O)c1cccc(C(=O)N(C)Cc2nc(C)cs2)c1)C(=O)NCC(C)C` [inhibitor 2i, N^1-((2S,3R)-3-Hydroxy-4-(((2S,3S)-3-hydroxy-1-(isobutylamino)-1-oxohexan-2-yl)amino)-1-phenylbutan-2-yl)-N^3-methyl-N^3-((4-methylthiazol-2-yl)methyl)isophthalamide], the Ki at BACE1 enzyme is 33.1 nM; at BACE2 enzyme, 51.1 nM.

Values taken from paper PMC6637425 (ChemMedChem, 2019).
